Data from patent publication US8546440B2, “Substituted bicyclic imidazole derivatives as gamma secretase modulators” (Janssen Pharmaceuticals, Inc., priority 2008, dated 2013).

Key:
Type in all cases: cell-based
Aβtotal [1] = test: Screening for γ-secretase-modulating activity, Method 2: Aβtotal Alphalisa in supernatant of SKNBE2 cells carrying APP 695 wild type (Table 12c); details: Method 2, Table 12c, incubated overnight
Method: (§1) Screening was carried out using SKNBE2 cells carrying the APP 695—wild type, grown in Dulbecco's Modified Eagle's Medium/Nutrient mixture F-12 (DMEM/NUT-mix F-12) (HAM) provided by Invitrogen (cat no. 10371-029) containing 5% Serum/Fe supplemented with 1% non-essential amino acids, 1-glutamine 2 mM, Hepes 15 mM, penicillin 50 U/ml (units/ml) en streptomycin 50 μg/ml. Cells were grown to near confluency.
(§2) The screening was performed using a modification of the assay as described in Citron et al (1997) Nature Medicine 3: 67. Briefly, cells were plated in a 384-well plate at 10^4 cells/well in Ultraculture (Lonza, BE12-725F) supplemented with 1% glutamine (Invitrogen, 25030-024), 1% non-essential amino acid (NEAA), penicillin 50 U/ml en streptomycin 50 μg/ml in the presence of test compound at different test concentrations. The cell/compound mixture was incubated overnight at 37° C., 5% CO2, The next day the media were assayed by two sandwich immuno-assays, for Aβ42 and Aβtotal.
(§3) Aβtotal and Aβ42 concentrations were quantified in the cell supernatant using the Aphalisa technology (Perkin Elmer). Alphalisa is a sandwich assay using biotinylated antibody attached to streptavidin coated donorbeads and antibody conjugated to acceptor beads. In the presence of antigen, the beads come into close proximity. The excitation of the donor beads provokes the release of singlet oxygen molecules that trigger a cascade of energy transfer in the acceptor beads, resulting in light emission. To quantify the amount of Aβ42 in the cell supernatant, monoclonal antibody specific to the C-terminus of Aβ42 (JRF/cAβ42/26) was coupled to the receptor beads and biotinylated antibody specific to the N-terminus of Aβ (JRF/AβN/25) was used to react with the donor beads. To quantify the amount of Aβtotal in the cell supernatant, monoclonal antibody specific to the N-terminus of Aβ (JRF/AβN/25) was coupled to the receptor beads and biotinylated antibody specific to the mid region of Aβ (biotinylated 4G8) was used to react with the donor beads.
(§4) To obtain the values reported in Table 12c, the data are calculated as percentage of the maximum amount of amyloid Beta 42 measured in the absence of the test compound. The sigmoidal dose response curves were analyzed using non-linear regression analysis with percentage of the control plotted against the log concentration of the compound. A 4-parameter equation was used to determine the IC50.

Aβ42 [2] = test: Screening for γ-secretase-modulating activity, Method 2: Aβ42 Alphalisa in supernatant of SKNBE2 cells carrying APP 695 wild type (Table 12c); details: Method 2, Table 12c, incubated overnight
Method: as §1, §2, §3, §4

Aβ42 [3] = test: Screening for γ-secretase-modulating activity, Method 1: Aβ42 sandwich ELISA in supernatant of SKNBE2 cells carrying APP 695 wild type (Tables 12a, 12b); details: Table 12b, Method 1, SKNBE2 cells carrying APP 695 wild type, cell supernatant ELISA, averaged IC50 values, percentage of control vs log concentration
Method: as §1, with “Gibco” for “Invitrogen”, “31330-38)” for “10371-029)”, “acids.” for “acids, 1-glutamine 2 mM, Hepes 15 mM, penicillin 50 U/ml (units/ml) en streptomycin 50 μg/ml.”
(§5) The screening was performed using the assay as described in Citron et al (1997) Nature Medicine 3: 67. Briefly, cells were plated in a 96-well plate at about 10^5 cells/ml one day prior to addition of compounds. Compounds were added to the cells in Ultraculture (Lonza, BE12-725F) supplemented with 1% glutamine (Invitrogen, 25030-024) for 18 hours. The media were assayed by two sandwich ELISAs, for Aβ42 and Aβtotal. Toxicity of the compounds was assayed by WST-1 cell proliferation reagent (Roche, 1 644 807) according to the manufacturer's protocol.
To quantify the amount of Aβ42 in the cell supernatant, commercially available Enzyme-Linked-Immunosorbent-Assay (ELISA) kits were used (Innotest® β-Amyloid(1-42), Innogenetics N.V., Ghent, Belgium). The Aβ42 ELISA was performed essentially according to the manufacturer's protocol. Briefly, the standards (dilutions of synthetic Aβ1-42) were prepared in polypropylene Eppendorf with final concentrations of 8000 down to 3.9 pg/ml (1/2 dilution step). Samples, standards and blanks (100 μl) were added to the anti-Aβ42-coated plate supplied with the kit (the capture antibody selectively recognizes the C-terminal end of the antigen). The plate was allowed to incubate 3 h at 25° C. in order to allow formation of the antibody-amyloid complex. Following this incubation and subsequent wash steps a selective anti-Aβ-antibody conjugate (biotinylated 3D6) was added and incubated for a minimum of 1 hour in order to allow formation of the antibody-Amyloid-antibody-complex. After incubation and appropriate wash steps, a Streptavidine-Peroxidase-Conjugate was added, followed 30 minutes later by an addition of 3,3′,5,5′-tetramethylbenzidine (TMB)/peroxide mixture, resulting in the conversion of the substrate into a coloured product. This reaction was stopped by the addition of sulfuric acid (0.9 N) and the colour intensity was measured by means of photometry with an ELISA-reader with a 450 nm filter.
(§6) To obtain the values reported in Table 12a, the sigmoidal dose response curves were analysed by computerised curve-fitting, with percent of inhibition plotted against compound concentration. A 4-parameter equation (model 205) in XLfit was used to determine the IC50. The top and the bottom of the curve were fixed to 100 and 0, respectively, and the hill slope was fixed to 1. The IC50 represents the concentration of a compound that is required for inhibiting a biological effect by 50% (Here, it is the concentration where Aβ peptide level is reduced by 50%).
as §4, with “12b,” for “12c,”, “IC50. The values reported in Table 12b are averaged IC50 values.” for “IC50.”

Aβtotal [4] = test: Screening for γ-secretase-modulating activity, Method 1: Aβtotal sandwich ELISA in supernatant of SKNBE2 cells carrying APP 695 wild type (Tables 12a, 12b); details: Table 12b, Method 1, SKNBE2 cells carrying APP 695 wild type, cell supernatant ELISA, averaged IC50 values
Method: as §1, with “Gibco” for “Invitrogen”, “31330-38)” for “10371-029)”, “acids.” for “acids, 1-glutamine 2 mM, Hepes 15 mM, penicillin 50 U/ml (units/ml) en streptomycin 50 μg/ml.”
as §5
To quantify the amount of Aβtotal in the cell supernatant, samples and standards were added to a 6E10-coated plate. The plate was allowed to incubate overnight at 4° C. in order to allow formation of the antibody-amyloid complex. Following this incubation and subsequent wash steps a selective anti-Aβ-antibody conjugate (biotinylated 4G8) was added and incubated for a minimum of 1 hour in order to allow formation of the antibody-Amyloid-antibody-complex. After incubation and appropriate wash steps, a Streptavidine-Peroxidase-Conjugate was added, followed 30 minutes later by an addition of Quanta Blu fluorogenic peroxidase substrate according to the manufacturer's instructions (Pierce Corp., Rockford, Ill.).
as §6
as §4, with “12b,” for “12c,”, “IC50. The values reported in Table 12b are averaged IC50 values.” for “IC50.”

Compound | IC50 (Aβtotal [1]) [µM] | IC50 (Aβ42 [2]) [µM] | other results
CC(=O)N(C)Cc1c(-c2ccccc2Cl)nc2c(Nc3ccc(-n4cnc(C)c4)c(F)c3)cccn12 [Compound 102] | – | – | IC50 (Aβtotal [1]; Homo sapiens): > 10 µM; IC50 (Aβ42 [2]; Homo sapiens): 0.014 µM; IC50 (Aβ42 [3]; Homo sapiens): 0.01 µM; IC50 (Aβtotal [4]; Homo sapiens): > 3.02 µM
COc1cc(Nc2cccn3cc(CC(F)(F)F)nc23)ccc1-n1cnc(C)c1 [Compound 109] | > 10 | 0.06 | IC50 (Aβ42 [3]): 0.015 µM; IC50 (Aβtotal [4]): > 3.02 µM
COc1cc(Nc2cccn3cc(C(O)C(F)(F)F)nc23)ccc1-n1cnc(C)c1 (centres unmarked) [Compound 110] | > 10 | 0.129 | –
CCC(=O)NCc1ccc(C)c(-c2cn3cccc(Nc4ccc(-n5cnc(C)c5)c(OC)c4)c3n2)c1 [Compound 111] | – | – | IC50 (Aβtotal [1]; Homo sapiens): 5.5 µM; IC50 (Aβ42 [2]; Homo sapiens): 0.065 µM
CCOC(=O)c1cn2cccc(Nc3ccc(-n4cnc(C)c4)c(OC)c3)c2n1 [Compound 113] | > 10 | 0.145 | IC50 (Aβ42 [3]): 0.038 µM; IC50 (Aβtotal [4]): > 3.02 µM
COCCOCCOCC(=O)NCc1ccc(C)c(-c2cn3cccc(Nc4ccc(-n5cnc(C)c5)c(OC)c4)c3n2)c1 [Compound 114] | – | – | IC50 (Aβtotal [1]; Homo sapiens): 3.63 µM; IC50 (Aβ42 [2]; Homo sapiens): 0.151 µM
Cc1cn(-c2ccc(Nc3cccn4cc(CC5CCOCC5)nc34)cc2F)cn1 [Compound 115] | – | – | IC50 (Aβtotal [1]; Homo sapiens): 8.32 µM; IC50 (Aβ42 [2]; Homo sapiens): 0.257 µM
CCC(=O)c1cn2cccc(Nc3ccc(-n4cnc(C)c4)c(OC)c3)c2n1 [Compound 117] | – | – | IC50 (Aβtotal [1]; Homo sapiens): > 10 µM; IC50 (Aβ42 [2]; Homo sapiens): 0.331 µM
Cc1cn(-c2ccc(Nc3cccn4cc(C5CCOCC5)nc34)cc2F)cn1 [Compound 118] | – | – | IC50 (Aβtotal [1]; Homo sapiens): > 10 µM; IC50 (Aβ42 [2]; Homo sapiens): 0.372 µM; IC50 (Aβ42 [3]; Homo sapiens): 0.331 µM; IC50 (Aβtotal [4]; Homo sapiens): > 3.02 µM
COc1cc(Nc2cccn3cc(C(C)(C)O)nc23)ccc1-n1cnc(C)c1 [Compound 121] | > 10 | 1.32 | –
COc1cc(Nc2cccn3cc(C(=O)N(C)C)nc23)ccc1-n1cnc(C)c1 [Compound 123] | > 10 | 5.37 | –
COc1nc(Nc2cc(F)cn3cc(CC(C)C)nc23)ccc1-n1cnc(C)c1 [Compound 142] | 6.61 | 0.031 | –
COc1nc(Nc2cccn3cc(C4CCOCC4)nc23)ccc1-n1cnc(C)c1 [Compound 143] | 3.39 | 0.06 | –
Cc1cn(-c2ccc(Nc3cc(Cl)cn4cc(C5CCOCC5)nc34)cc2F)cn1 [Compound 150] | > 10 | 0.2 | –
COc1cc(Nc2cc(C(F)(F)F)nn3cc(C4CCOCC4)nc23)ccc1-n1cnc(C)c1 [Compound 158] | 8.91 | 0.071 | –
COc1cc(Nc2ccnn3cc(-c4cc(F)ccc4C)nc23)ccc1-n1cnc(C)c1 [Compound 159] | – | – | IC50 (Aβtotal [1]; Homo sapiens): 4.79 µM; IC50 (Aβ42 [2]; Homo sapiens): 0.055 µM
COc1cc(Nc2cc(C(C)C)nn3cc(C)nc23)ccc1-n1cnc(C)c1 [Compound 160] | > 10 | 0.087 | –
COc1ccccc1-c1cc(Nc2ccc(-n3cnc(C)c3)c(OC)c2)c2nc(C)cn2n1 [Compound 161] | > 10 | 0.132 | –
COc1cc(Nc2cc(Cl)nn3cc(-c4cc(F)ccc4C)nc23)ccc1-n1cnc(C)n1 [Compound 162] | > 10 | 0.138 | –
COc1cc(Nc2cc(Cl)nn3cc(C)nc23)ccc1-n1cnc(C)c1 [Compound 165] | > 10 | 0.178 | –
COc1cc(Nc2cc(C3CCOCC3)nn3cc(C)nc23)ccc1-n1cnc(C)c1 [Compound 170] | > 10 | 0.447 | –
C=C(C)c1cc(Nc2ccc(-n3cnc(C)c3)c(OC)n2)c2nc(-c3ccccc3Cl)cn2n1 [Compound 171] | – | – | IC50 (Aβtotal [1]; Homo sapiens): 8.32 µM; IC50 (Aβ42 [2]; Homo sapiens): 0.537 µM
COc1cc(Nc2nccn3cc(-c4ccc(F)cc4)nc23)ccc1-n1cnc(C)n1 [Compound 178] | > 10 | 0.38 | –
COc1nc(Nc2cccn3cc(CC(F)(F)F)nc23)ccc1-n1cnc(C)c1 [Compound 179] | – | – | IC50 (Aβtotal [1]; Homo sapiens): > 10 µM; IC50 (Aβ42 [2]; Homo sapiens): 0.078 µM
COc1nc(Nc2cccn3cc(CC(F)(F)F)nc23)ccc1-n1cnc(C)n1 [Compound 180] | 6.25 | 0.562 | –

Now from value to molecule, other results behind:

IC50 (Aβtotal [1]) [µM] | IC50 (Aβ42 [2]) [µM] | Compound | other results
> 10 | 0.019 | COCc1c(-c2ccccc2Cl)nc2c(Nc3ccc(-n4cnc(C)c4)c(F)c3)cccn12 [Compound 103] | IC50 (Aβ42 [3]): 0.013 µM; IC50 (Aβtotal [4]): > 3.02 µM
> 10 | 0.107 | COc1c(-c2ccc(F)cc2)nc2c(Nc3ccc(-n4cnc(C)c4)c(F)c3)cccn12 [Compound 112] | –
> 10 | 0.052 | COc1cc(Nc2cccn3c(CN(C)C)c(-c4ccccc4Cl)nc23)ccc1-n1cnc(C)n1 [Compound 126] | –
> 10 | 0.062 | COc1cc(Nc2cccn3c(CN(C)C)c(-c4ccccc4)nc23)ccc1-n1cnc(C)n1 [Compound 128] | –
4.27 | 0.005 | COc1nc(Nc2cccn3c(C)c(-c4ccccc4Cl)nc23)ccc1-n1cnc(C)c1 [Compound 139] | –
4.07 | 0.006 | COCc1c(-c2ccccc2Cl)nc2c(Nc3ccc(-n4cnc(C)c4)c(OC)n3)cccn12 [Compound 140] | –
> 10 | 0.013 | COc1nc(Nc2cccn3c(OC)c(-c4ccc(F)cc4)nc23)ccc1-n1cnc(C)c1 [Compound 141] | –
> 10 | 0.043 | Cc1cn(-c2ccc(Nc3cc(F)cn4cc(-c5ccc(F)cc5C)nc34)cc2F)cn1 [Compound 148] | –
> 10 | 0.251 | Cc1cn(-c2ccc(Nc3ccnn4cc(-c5cc(F)ccc5C)nc34)cc2F)cn1 [Compound 166] | –
7.94 | 0.417 | Cc1cn(-c2ccc(Nc3cc(Cl)nn4cc(-c5cc(F)ccc5C)nc34)cc2F)cn1 [Compound 169] | –
